Measurements as given in patent US20020068749A1, “AIDS REMEDY” (priority 1996, published 2002).
≈ marks a conversion by molar mass, not a printed value.

Assays:
[1] = system: KNI-272 resistant strain; assay: microbe, parasite or virus in culture; assay type: cell-based, HIV
Source text: (§1) A drug resistant strain virus is a resistance strains induced in a cell culture system in vitro while maintaining infection in the presence of each medicament through generations.

[2] = Change of concentration in plasma over time after oral administration to rats (KNI-272 with Indinavir or Nelfinavir); settings: for AUC: rat, plasma, po, 40 mg/kg, AUC value of Indinavir
Description: In this example, the change in concentration in blood of KNI-272 over time when the KNI-272 was orally administered in combination with Indinavir, i.e. the change in the concentration of a non-binding type of drug in plasma over time, was measured to evaluate the effect of drug interactions on fluctuations of dynamics in vivo. A commercially available Indinavir for oral administration, CRIXIVAN™ (manufactured by Merck), was used after dissolving Indinavir sulfate in a prescribed concentration. As KNI-272, a suspension prepared from a fine powder of KNI-272 was used. Rats were used as test animals. […] In addition, each compound was individually administered to control groups to evaluate the dynamics in vivo. The animals were fasted for 16 hours before administration. The measurement of the change in the non-binding drug concentration in plasma over time was carried out according to a conventional method using blood samples collected from the test animals.
The method of evaluation was applied to the above-mentioned system of Indinavir and KNI-272 was followed. […] In this example, a dosage of 50 mg/kg was selected for both Nelfinavir and KNI-272.

[3] = system: Ritonavir resistant strain; assay: Anti-virus activity IC50 against Ritonavir resistant strain; assay type: cell-based, HIV; settings: Ritonavir resistant strain
[4] = system: HIV Wild strain (IIIB); assay: Anti-virus activity IC50 against wild strain; assay type: cell-based; settings: Wild strain (IIIB)
[5] = Dynamics in vivo (concentration in plasma over time) of KNI-272 and Ritonavir in dogs
[6] = system: IIIB strain of HIV-1 in CEM-SS cells; assay: Measurement of anti-HIV activity in vitro (XTT method, control of cellular denaturalization due to HIV infection); assay type: cell-based
Description: An increase in the synergistic anti-virus activity in the combined use of KNI-272 and Saquinavir is shown by a specific experimental example. The anti-virus activity was evaluated as the capability of controlling generation of infectious virus particles in vitro. The effect of cell extinction to HIV infection was calculated when Saquinavir methanesulfonate and KNI-272 respectively or both were added to a culture liquid, to determine the concentration region where a synergistic increase in the anti-virus activity in the combined use of the two compounds is conspicuous. Measurement of the anti-virus activity in vitro was carried out according to the following procedure. In the description hereinafter the concentration of methanesulfonate is indicated as the concentration converted into Saquinavir. The concentration of KNI-272 is indicated as the concentration of the compound itself.
A IIIB strain of HIV-1 was used as an HIV wild strain and CEM-SS cells were used as infected cells in the above-mentioned culture. The amount of HIV sufficient to kill all CEM-SS cells 6 days after inoculation (multiplicy of infection, MOI of 0.01-0.05) was determined and this amount of HIV was added. A 96 well micro-titre plate was used to inoculate 5×10^3 CEM-SS cells per well in this case. At the time of inoculation of cells, a test compound was added to the culture medium to a prescribed concentration. Three specimens were used for each test level. The following controls were used (1) as calorimetric controls: a sample with only a test compound added to the culture medium, (2) as a cytotoxic control for a test compound: a sample with only cells and the test compound added to the culture medium, (3) as a virus control: a sample with the cells inoculated with only a virus, and (4) as a cell survival control, a sample consisting only of cells. In addition, AZT and DDC which are compounds with a known anti-HIV activity were used as positive controls. After the cells were added, they were inoculated with the infecting virus, followed by incubation at 37° C.for 6 days. Cellular denaturalization due to HIV infection was colorimetrically measured for each well. Employing the colorimetry, was the metabolism from XTT Tetrazolium to XTT Formazan was evaluated. This colorimetry is called the XTT method (see Weislow et al., Journal of the National Cancer Institute 81, 577-586 (1989)). After the above-mentioned incubation, a prescribed amount of XTT was added to each well and incubation was continued for a further four hours at 37° C. to measure the amount of XTT Formazan produced by metabolism by means of calorimetric quantitation.
The anti-HIV activity for each experimental level was calculated by comparing the number of undenatured cells measured by the above-mentioned assay with the corresponding number of cells in the four control groups. Specifically, the proportion of cellular denaturalization due to HIV infection controlled by the addition of the test compound was calculated. A systematic deviation between the several experiments was corrected based on the results of AZT and ddC used as positive controls.
In this example, 0 ng/ml and several concentrations in the range of 0.625-10.0 ng/ml of Saquinavir methanesulfonate and 0 ng/ml and several concentrations in the range of 0.313-80.0 ng/ml of KNI-272 were used. The results (anti-HIV activities) obtained under these conditions using either one of these medicaments or both medicaments in combination are shown in Table 1.
With regard to this concentration region wherein no synergistic increase can be seemingly identified, a similar evaluation was carried out adding a larger amount of HIV to qualitatively evaluate the presence or absence of a synergistic effect. […] This affords qualitative results rather than quantitative results.
An increase in the synergistic anti-virus activity in the combined use of KNI-272 and Ritonavir is shown by a specific experimental example. […]

[7] = system: Indinavir resistant strain; assay: Anti-virus activity IC50 against Indinavir resistant strain; assay type: cell-based, HIV; settings: Human immunodeficiency virus 1, read-out: Anti-virus activity IC50
Source text: as §1

[8] = Human immunodeficiency virus 1, read-out: Anti-virus activity IC50
[9] = Indinavir 40 mg/kg + KNI-272 40 mg/kg p.o. at the same time

Cc1c(O)cccc1C(=O)N[C@@H](CSc1ccccc1)[C@H](O)CN1C[C@H]2CCCC[C@H]2C[C@H]1C(=O)NC(C)(C)C (relative stereo) [Nelfinavir, [3S-[2(2S*, 3S*), 3α, 4α, 8aβ]]-N-1,1-dimethylethyl-decahydro-2-[2-hydroxy-3-[(3-hydroxy-2-methylbenzoyl)amino]-4-(phenylthio)butyl]-3-isoquinolinecarboxamide, reference compound]
Anti-virus activity IC50 ([1]; KNI-272 resistant strain): 0.030 µg/mL
AUC value for Nelfinavir ([2]; Nelfinavir 50 mg/kg p.o. only): 130 µg·min/mL
AUC value for Nelfinavir ([2]; Nelfinavir 50 mg/kg p.o. simultaneously with KNI-272 50 mg/kg): 215 µg·min/mL
increase in AUC value for Nelfinavir ([2]; Nelfinavir 50 mg/kg with KNI-272 50 mg/kg vs alone): ~1.6 times
Anti-virus activity IC50 [3]: 0.124 µg/mL
Anti-virus activity IC50 [4]: 0.007 µg/mL

CC(C)c1nc(CN(C)C(=O)NC(C(=O)N[C@@H](Cc2ccccc2)C[C@H](O)[C@H](Cc2ccccc2)NC(=O)OCc2cncs2)C(C)C)cs1 (relative stereo) [Ritonavir, [5S-(5R*, 8R*, 10R*,11R*)]-10-hydroxy-2-methyl-5-(1-methylethyl)-1-[2-(1-methylethyl)-4-thiazolyl]-3,6-dioxo-8,11-bis(phenylmethyl)-2,4,7,12-tetraaza-tridecane-13-hydroxyacid 5-thiazolylmethyl ester, reference compound]
influence of combined use of KNI-272 on the dynamics in vivo of Ritonavir ([5]; KNI-272 administered immediately after Ritonavir, dogs): no apparent influence
MRT value (index of the half-life of concentration in blood) ([5]; medicaments individually administered): ≥ 180 minutes and more than 180 minutes
Anti-HIV activity (%) ([6]; Ritonavir 1.25 ng/ml alone): 2.0%
Anti-HIV activity (%) ([6]; Ritonavir 2.5 ng/ml alone): 2.3%
Anti-HIV activity (%) ([6]; Ritonavir 5.0 ng/ml alone): 0.5%
Anti-HIV activity (%) ([6]; Ritonavir 10.0 ng/ml alone): 8.9%

CC(C)(C)NC(=O)[C@@H]1CN(Cc2cccnc2)CCN1C[C@@H](O)C[C@@H](Cc1ccccc1)C(=O)N[C@H]1c2ccccc2C[C@H]1O [Indinavir, [1(1S, 2R),5(S)]-2,3,5-trideoxy-N-(2,3-dihydro-2-hydroxy-1H-indane-1-yl)-5-[2-(1,1-dimethylethyl)aminocarbonyl-4-(3-pyridinylmethyl)-1-piperazinyl]-2-(phenylmethyl)-D-erythro-pentonamide, reference compound]
IC50 [1, 8]: 0.03 µg/mL (≈ 0.0489 µM)
increase in maximum concentration in blood value (Cmax) of Indinavir [2, 9]: as much as twice
increase in the AUC value of Indinavir [2, 9]: almost two times
AUC ([2]; Indinavir 40 mg/kg p.o. individually): 17200 ng·h/mL
AUC ([2]; Indinavir 40 mg/kg p.o. together with KNI-272 40 mg/kg): 44300 ng·h/mL
IC50 [4, 8]: 0.009 µg/mL (≈ 0.0147 µM)
IC50 [7]: 0.576 µg/mL (≈ 0.938 µM)
